# Data: patent US11696903B2, “Compounds and methods for scavenging dicarbonyl electrophiles” (VANDERBILT UNIVERSITY, priority 2019, dated 2023)
# Tests used:
# [1] = system: gastric uptake of 18F-NaF (tumor marker) and 18F-FDG (inflammation marker); experiment: PET/CT imaging with 18F-FDG and 18F-NaF; type: in vivo; details: Hp-infected mice, EtSA
# Method: As discussed further in the Examples, the human gastric epithelial cell line AGS was infected with Hp PMSS1±10 mM EtSA. FVB/N insulin-gastrin (INS-GAS) mice and Mongolian gerbils were infected for 8 wk with Hp PMSS1 and 7.13, respectively; EtSA (0.75% in water) was given to animals beginning one wk post-infection. Lys-LG adducts, a marker of electrophile reactions, and EtSA were quantified by LC/EST/MS/MS. Histology was analyzed on H&E staining. DNA damage was evaluated by pH2AX staining. Hp colonization was quantified by culture. Mucosal immune responses were determined by RNA profiling and by Luminex assay. Mice were imaged using PET/CT with ^18F-FDG (inflammation marker) and ^18F—NaF (tumor marker).
# [2] = system: colonic immune response; experiment: Colonic immune response in AOM-DSS mice (infiltration score, gene expression, IF); type: in vivo, C57BL/6 mice
# Excerpt: The present inventors used the tissues generated for FIG. 5 to study immune cell responses in AOM-DSS-treated mice±EtHOBA.
# Using the tissues from the same mice as in FIG. 5, the present inventors analyzed the expression of key genes encoding mediators of the innate and adaptive immune response. […] Importantly, the overall pattern was that the genes encoding antitumoral effectors were expressed at a higher level in mice that were given compounds of the present invention. […] In contrast, the gene encoding the immunosuppressive myeloid mediator AR G1 was not affected by EtHOBA (FIG. 9). Using IF, we confirmed that mice treated with AOM-DSS mice that were given EtHOBA had increased CD68^+NOS2^+ (M1 macrophages) in colon tumors (FIG. 10).
# [3] = system: LG-protein adducts; experiment: IHC for LG-protein adducts in colons of AOM-DSS mice; type: in vivo, C57BL/6 mice; details: 1.5 mg/ml EtHOBA
# Excerpt: The present inventors performed immunohistochemistry (IHC) staining using the single chain antibody (Ab) D11, which specifically binds to L G-protein adducts, and a tissue microarray (TMA) from VUMC that contains colon tissues from patients with ulcerative colitis (UC), and associated precancerous and cancerous lesions. Histopathologic diagnoses were established from clinical case material from surgical resections and confirmed by H&E staining of the TMA. High levels of L G-protein adducts were present in active colitis, dysplasia, and carcinoma compared to normal patients (FIG. 2). On the TMA, 7/9 (78%) high grade dysplasia (HGD) cores and 21/23 (91%) CAC cores were scored positive for L G adducts.
# Animals receive an i.p. injection of the carcinogen AOM (12.5 mg/kg) followed by 3 cycles of 4% DSS, each for 4 days, over a total of 56-77 days. To directly determine the role of electrophiles in colon carcinogenesis, the present inventors tested the effect of EtHOBA in C57BL/6 mice in the AOM-DSS model. Mice were given 1.5 mg/ml EtHOBA one day after AOM and continued throughout the experiments, except during the DSS cycles, to avoid mixing. The present inventors assessed electrophiles in colons of mice treated with AOM-DSS, by IHC for electrophile protein adducts. […]
# [4] = system: C57BL/6 mice in the AOM-DSS model; experiment: AOM-DSS model of colitis-associated carcinoma (tumors, dysplasia, body weight); type: in vivo
# Method: FIGS. 5A, 5B, 5C, 5D, 5E, 5F, and 5G show mice (n=10-12/group)±AOM-DSS±1.5 mg/ml EtHOBA. (A) Body weight; ″P<0.05 compared to AOM-DSS-treated mice. (B) Tumor number. (C) Average tumor size per mouse. (D) Tumor burden. (E) Number of adenomas. (F) Frequency of diagnoses; ND, no dysplasia. (G) H&E staining; each arrow depicts a tumor. Scale bar, 50 μm.
# Animals receive an i.p. injection of the carcinogen AOM (12.5 mg/kg) followed by 3 cycles of 4% DSS, each for 4 days, over a total of 56-77 days. To directly determine the role of electrophiles in colon carcinogenesis, the present inventors tested the effect of EtHOBA in C57BL/6 mice in the AOM-DSS model. Mice were given 1.5 mg/ml EtHOBA one day after AOM and continued throughout the experiments, except during the DSS cycles, to avoid mixing. The present inventors assessed electrophiles in colons of mice treated with AOM-DSS, by IHC for electrophile protein adducts. […] In total, without the scavenger treatment, 25% of mice had HGD and the remaining 75% had L GD; in contrast, in those receiving EtHOBA, 20% had no dysplasia, none had HGD, and 80% had only L GD, a significant overall difference in diagnoses (FIGS. 5F-G).
# [5] = AOM-DSS, 1.5 mg/ml EtHOBA vs AOM-DSS alone
smiles,measurement,setting,value
"CCc1ccc(O)c(CN)c1 [EtHOBA, 5-ethyl-2-hydroxybenzylamine]",gastric uptake of the tumor marker 18F-NaF,[1],decreased
same,uptake of the inflammation marker 18F-FDG,[1],not modified
same,immune cell infiltration,"[2]; AOM-DSS mice, EtHOBA vs untreated",more influx of immune cells
same,Arg1 (ARG1) expression,[2]; AOM-DSS ± EtHOBA,not affected
same,CD68+NOS2+ (M1 macrophages) in colon tumors,"[2]; IF, AOM-DSS mice",increased
same,histology in control mice,[2]; control mice given EtHOBA,no effect on histology
same,Il12a expression,"[2]; non-tumor and tumor tissue, AOM-DSS ± EtHOBA",reached statistical significance for an increase
same,Il17 expression,"[2]; non-tumor tissue, AOM-DSS ± EtHOBA",reached statistical significance for an increase
same,Il12b expression,"[2]; tumor tissue, AOM-DSS ± EtHOBA",reached statistical significance for an increase
same,Nos2 expression,"[2]; tumor tissue, AOM-DSS ± EtHOBA",reached statistical significance for an increase
same,Tnfa expression,"[2]; tumor tissue, AOM-DSS ± EtHOBA",reached statistical significance for an increase
same,LG-protein adducts (IHC staining),[3],marked attenuation
same,mice with high grade dysplasia (HGD),"[4]; AOM-DSS + EtHOBA, without scavenger 25%",none
same,mice with only low-grade dysplasia (LGD),"[4]; AOM-DSS + EtHOBA, without scavenger 75%",80%
same,mice with no dysplasia,"[4]; AOM-DSS + EtHOBA, without scavenger all mice had dysplasia",20%
same,Tumor number,[4]; [5],significantly less tumors
same,body weight loss at each cycle of DSS,[4]; [5],less weight loss
same,number of histologic adenomas,[4]; [5],reduced number
same,total tumor burden,[4]; [5],lower
same,tumor size,[4]; [5],lower tumor size
same,body weight in control mice,"[4]; control mice treated for 56 days, 1.5 mg/ml EtHOBA",no change in body weight
